≈ marks a conversion by molar mass, not a printed value. Where two headings read alike, the source gives them in different places. Residues, ends and D or L forms follow the SMILES beside them. *: point of attachment. Lithocholoyl = C[C@H](CCC(=O)*)[C@H]1CC[C@H]2[C@@H]3CC[C@@H]4C[C@H](O)CC[C@]4(C)[C@H]3CC[C@]12C; Palmitoyl = CCCCCCCCCCCCCCCC(=O)*
Assays:
Ps. aeruginosa DBM 3081 = assay type: cell-based, Pseudomonas aeruginosa; settings: for IC50: 25 h
Procedure: (§1) A Bioscreen C automated microbiology growth curve analysis system (Growth Curves, Piscataway, NJ, USA) was used for the quantitative determination of antimicrobial activity (minimal inhibitory concentration, MIC) of PAL/LCA-peptides. Optical density was measured with a wide bandpass filter (wavelength range 420–580 nm) at regular intervals and temperatures. This assay was performed in a special microtiter plate (10 × 10 wells) that allowed the simultaneous testing of a large number of samples against several microorganisms. The total testing volume was 100 µL, obtained by mixing 10 µL of microbial culture with OD600 equal to 0.1 with growth medium and a solution of the tested compounds. The positive controls were vancomycin and tetracycline for Bacillus subtilis (100 µg/mL) for Gram-positive bacteria, kanamycin, and tetracycline for Acinetobacter baumannii (100 µg/mL) for Gram-negative bacteria, and clotrimazole or amphotericin (100 µg/mL) for fungi. The maximal concentration of tested lipoproteins was 1 mg/mL. A pure growth medium was used as the negative control. The measurement period was 25 h. The lowest concentration with a 100% inhibition effect for 24 h of incubation was chosen as the MIC. The antibacterial activity of each compound was expressed as the minimum inhibitory concentration MIC (MIC is the lowest concentration of the compound needed to inhibit the growth of bacterial cells) and IC50 (IC50 is the concentration of the compound needed to inhibit the growth of bacterial cells by 50%).

Staph. aureus MRSA1 = assay type: cell-based, Staphylococcus aureus; settings: for MIC: 24 h; for IC50: 25 h
Procedure: as §1

Staph. aureus DBM 3002 = assay type: cell-based, Staphylococcus aureus; settings: for IC50: 25 h; for MIC: 24 h
Procedure: as §1

HepG2 = assay: Cytotoxicity assay (xCELLigence impedance); assay type: cell-based, human; settings: 24 h exposure
Procedure: (§2) Experiments were carried out using an xCELLigence RTCA DP Instrument (Roche Diagnostics GmbH, Mannheim, Germany) which was placed into an incubator (37 °C and 5% CO2). Cell proliferation and cytotoxicity experiments were performed using modified 16-well plates (E-plate, Roche Diagnostics GmbH, Mannheim, Germany). Microelectrodes were attached to the bottom of the wells for the impedance-based detection of attachment, spreading, and proliferation of the cells (Stoddart [2011]). This system monitors cellular events in real time without the incorporation of labels by measuring electrical impedance across an interdigitated microelectrode integrated into the bottom of this special tissue culture plate. This impedance measurement improves upon conventional endpoint assays and provides quantitative information about the biological status of the cells, including cell number, adhesion, viability, and morphology. Ninety microliters of cultivation medium was used for the blank sample, and subsequently, 100 µL of HepG2 or HEK293T cell suspension (7 × 10^5 cells/mL) was added and placed into the incubator (37 °C, 95% humidity, 5% CO2). […] Chrysophsin-3 at a concentration of 100 µg/mL was used as a positive control and solvent (deionized water) as a negative control. Subsequent incubation was performed for at least an additional 24 h. The result of the measurement was viability curves. After the measurement, percentages of tissue culture growth inhibition were calculated for all the tested substances, as follows: %inhibition=(1-(ΔϕCIsample)/(ΔϕCIcontrol))·100
(§3) Δ∅CIsample … the difference between the first and last average CI (cell index) values of the tissue culture in the presence of the tested sample.
(§4) Δ∅CIcontrol … the difference between the first and last average CI values of the tissue culture itself.

HEK293T = assay: Cytotoxicity assay (xCELLigence impedance); assay type: cell-based, human; settings: 24 h exposure
Procedure: as §2, §3, §4

M. luteus DBM 3053 = assay type: cell-based, Micrococcus luteus; settings: for MIC: DBM 3053, 24 h; for IC50: DBM 3053, 25 h
Procedure: as §1

B. subtilis DBM 3006 = assay type: cell-based, Bacillus subtilis; settings: for IC50: DBM 3006, 25 h; for MIC: DBM 3006, 24 h
Procedure: as §1

E. coli DBM 3001 = assay type: cell-based; settings: for IC50: DBM 3001, 25 h
Procedure: as §1

E. faecalis DBM 3075 = assay type: cell-based; settings: DBM 3075, 25 h
Procedure: as §1

C. tropicalis DBM 2166 = assay type: cell-based, Candida tropicalis; settings: for IC50: DBM 2166, 25 h
Procedure: as §1

A. baumannii DBM 3183 = assay: microbe, parasite or virus in culture; assay type: cell-based, Acinetobacter baumannii; settings: for IC50: DBM 3183, 25 h
Procedure: as §1

plasmid pGreen 0029 = assay: DNA binding assay (gel retardation); settings: for weight ratio lipopeptide:DNA influencing electrophoretic mobility: 50 ng DNA, 1 h room temperature, 1% agarose gel
Procedure: This assay was performed as described by Park et al. ([1998]), with a few modifications. […] The reaction mixture was incubated at room temperature for 1 h. Subsequently, 4 µL of native loading buffer (10% Ficol, 10 mM Tris–HCl (pH 7.5), 50 mM EDTA, 0.25% bromophenol blue) was added. An aliquot was applied to 1% agarose gel electrophoresis in 0.5xTris borate-EDTA buffer. Circular plasmid DNA was isolated from (Luria–Bertani medium with AMPI in final concentration 100 µg/mL) bacterial strain E. coli DH5α / pBluescriptII KS- that had been grown overnight, and linearization was performed overnight by enzymatic reaction using restriction endonuclease EcoRV at 37 °C. The evaluation was performed by visualizing the DNA with the intercalation dye Midori Green Advanced DNA Stain under UV light. Reduced electrophoretic mobility compared to the control is considered to be evidence of peptide binding to DNA.
According to the previous results, we decided to clarify one of the possible molecular interaction mechanisms, the ability of the studied lipopeptides to bind microbial plasmid DNA. Based on the assumption that pore formation is only one of the influencing factors, which arose from previous results, the effect on one of the possible intracellular targets, DNA, was determined. This determination was carried out on isolated plasmid DNA, specifically on two plasmids, pGreen 0029 and pBluescript II KS- in circular and linearized form.

Staph. aureus = assay: Transmission electron microscopy of treated bacteria; assay type: cell-based, Staphylococcus aureus; settings: 1 to 4 h incubation; media with (Mueller–Hinton broth 2) and without nutrients (potassium phosphate buffer)
Procedure: Pictures of damaged bacterial cells were obtained by transmission electron microscopy after 1 to 4 h of incubation. Cells of the Gram-positive bacterial strains were not stained. A JEOL JEM-1010 transmission electron microscope (JEOL, Tokyo, Japan) equipped with a MegaView III CCD camera was used for visualization, and evaluation was performed with the program for image analysis AnalySIS software v. 2.0 (Soft Imaging Systems). The samples were plated on a carbon-coated electron microscopic grid and observed with an accelerating voltage of 80 kV.

[1] = tested on: all the tested microorganisms; assay: Microtitre dilution screening at 1 mg/mL; assay type: cell-based; settings: c = 1 mg/mL, microtitre dilution method
Procedure: as §1

[2] = first value of cell 'MIC / IC50', 100% inhibition for 24 h

Compound	MIC (Staph. aureus MRSA1) [µg/mL]	IC50 (Staph. aureus MRSA1) [µg/mL]	IC50 (Staph. aureus DBM 3002)	% inhibition (HepG2; c 50 µg/mL) [%]	% inhibition (HepG2; c 100 µg/mL) [%]	% inhibition (HEK293T; c 50 µg/mL) [%]	% inhibition (HEK293T; c 100 µg/mL) [%]	% inhibition (HEK293T; c 200 µg/mL) [%]	MIC (M. luteus DBM 3053) [µg/mL]	IC50 (M. luteus DBM 3053) [µg/mL]	IC50 (Ps. aeruginosa DBM 3081)	IC50 (B. subtilis DBM 3006)	IC50 (E. coli DBM 3001)	IC50 (E. faecalis DBM 3075)	IC50 (C. tropicalis DBM 2166)	IC50 (A. baumannii DBM 3183)	growth inhibition / activity in screening [1]	also measured
NC[C@H]1O[C@H](O[C@H]2[C@H](O)[C@@H](O[C@H]3O[C@H](CO)[C@@H](O)[C@H](N)[C@H]3O)[C@H](N)C[C@@H]2N)[C@H](O)[C@@H](O)[C@@H]1O [kanamycin, reference compound]	–	–	–	–	–	–	–	–	–	–	–	–	–	–	–	–	–	MIC (Ps. aeruginosa DBM 3081; [2]): 20 µg/mL (≈ 41.3 µM)
CCCCCCCCCCCCCCCC(=O)N[C@@H](CC(C)C)C(=O)N[C@H](C(=O)N[C@@H](CCCCN)C(=O)NCC(=O)N[C@@H](C)C(=O)N[C@@H](CCCNC(=N)N)C(N)=O)C(C)C [SHP-2.2, PAL-LVKGAR-NH2] (Palmitoyl-LVKGAR-NH2)	14.9 (≈ 16.9 µM)	25.0 (≈ 28.4 µM)	N / > 100.0 µg/mL	4.3 ± 0.6	11.4 ± 1.7	11.1 ± 1.7	19.3 ± 2.9	28.6 ± 4.3	7.0 (≈ 7.95 µM)	10.0 (≈ 11.4 µM)	N / > 100.0 µg/mL	N / > 100.0 µg/mL	N / > 100.0 µg/mL	N / > 100.0 µg/mL	N / > 100.0 µg/mL	N / > 100.0 µg/mL	–	% inhibition (HepG2; c 200 µg/mL): 18.5 ± 2.8%
CN(C)[C@@H]1C(O)=C(C(N)=O)C(=O)[C@@]2(O)C(O)=C3C(=O)c4c(O)cccc4[C@@](C)(O)[C@H]3C[C@@H]12 [tetracycline, reference compound]	–	–	–	–	–	–	–	–	–	–	–	–	–	–	–	–	–	MIC (A. baumannii DBM 3183; Acinetobacter baumannii, DBM3183, first value of cell 'MIC / IC50', lowest concentration with 100% inhibition for 24 h, 100 µL, OD 420–580 nm): 10 µg/mL (≈ 22.5 µM)
CC(C)C[C@H](NC(=O)[C@@H](NC(=O)CNC(=O)CC[C@@H](C)[C@H]1CC[C@H]2[C@@H]3CC[C@@H]4C[C@H](O)CC[C@]4(C)[C@H]3CC[C@]12C)C(C)C)C(=O)N[C@@H](CCCCN)C(=O)N[C@@H](CCCNC(=N)N)C(=O)N[C@@H](C)C(N)=O [SHP-3.3, LCA-GVLKRA-NH2] (Lithocholoyl-GVLKRA-NH2)	25.2 (≈ 25.2 µM)	50.0 (≈ 50 µM)	50.0 µg/mL (≈ 50 µM)	4.3 ± 0.6	35.6 ± 5.3	7.8 ± 1.2	28.5 ± 4.3	88.2 ± 13.2	1.5 (≈ 1.5 µM)	5.0 (≈ 5 µM)	N / > 100.0 µg/mL	50.0 µg/mL (≈ 50 µM)	N / > 100.0 µg/mL	N / > 100.0 µg/mL	30.0 µg/mL (≈ 30 µM)	N / > 100.0 µg/mL	–	weight ratio lipopeptide:DNA influencing electrophoretic mobility (plasmid pGreen 0029; circular plasmid): 1.0; weight ratio lipopeptide:DNA influencing electrophoretic mobility (plasmid pGreen 0029; linearized plasmid): 10.0; MIC (Staph. aureus DBM 3002): 28.8 µg/mL (≈ 28.8 µM); MIC (B. subtilis DBM 3006): 34.3 µg/mL (≈ 34.3 µM); MIC (C. tropicalis DBM 2166; [2]): 10.0 µg/mL (≈ 10 µM); morphological effect on bacterial cells (TEM) (Staph. aureus): damaging cellular envelopes
LVKRAG-NH2 [SHP-1.1, primary hexapeptide with C-terminal amidation]	–	–	–	–	–	–	–	–	–	–	–	–	–	–	–	–	low activity	growth inhibition (Staph. aureus DBM 3002; c = 1 mg/mL, Staphylococcus aureus, strain not stated): One hundred percent; growth inhibition (M. luteus DBM 3053; c = 1 mg/mL): One hundred percent
GVLKRA-NH2 [SHP-3.1]	–	–	–	–	–	–	–	–	–	–	–	–	–	–	–	–	low activity	growth inhibition (B. subtilis DBM 3006; c = 1 mg/mL): One hundred percent
CCCCCCCCCCCCCCCC(=O)NCC(=O)N[C@H](C(=O)N[C@@H](CC(C)C)C(=O)N[C@@H](CCCCN)C(=O)N[C@@H](CCCNC(=N)N)C(=O)N[C@@H](C)C(N)=O)C(C)C [SHP-3.2, PAL-GVLKRA-NH2] (Palmitoyl-GVLKRA-NH2)	6.8 (≈ 7.73 µM)	12.5 (≈ 14.2 µM)	30.0 µg/mL (≈ 34.1 µM)	17.0 ± 2.6	20.7 ± 3.1	4.1 ± 0.6	29.6 ± 4.4	0.0 ± 0.3	5.8 (≈ 6.59 µM)	10.0 (≈ 11.4 µM)	100.0 µg/mL (≈ 114 µM)	50.0 µg/mL (≈ 56.8 µM)	100.0 µg/mL (≈ 114 µM)	N / > 100.0 µg/mL	N / > 100.0 µg/mL	N / > 100.0 µg/mL	–	influence on electrophoretic mobility of plasmid DNA (plasmid pGreen 0029; circular or linearized forms, tested ratios): did not exhibit any influence; MIC (Staph. aureus DBM 3002): 8.6 µg/mL (≈ 9.77 µM); % inhibition (HepG2; c 200 µg/mL): 23.2 ± 3.5%; MIC (Ps. aeruginosa DBM 3081; 24 h): 83.6 µg/mL (≈ 95 µM); MIC (B. subtilis DBM 3006): 41.1 µg/mL (≈ 46.7 µM); MIC (E. coli DBM 3001; DBM 3001, 24 h): 68.7 µg/mL (≈ 78 µM)
LVKGAR-NH2 [SHP-2.1, primary hexapeptide with C-terminal amidation]	–	–	–	–	–	–	–	–	–	–	–	–	–	–	–	–	low activity	–

From article PMC11003925, “Antimicrobial activity and properties of de novo design of short synthetic lipopeptides” (Folia Microbiologica, 2024)
